Measurements reported in patent publication US20070219210A1, “Amidopyrazole Derivative” (Daiichi Pharmaceutical Co., LTD., priority 2003, published 2007).

What was measured:
[1] = molecular target: T1, Cyclooxygenase-2 (COX-2) (Homo sapiens, UniProt P35354); assay: COX Inhibitor Screening Assay Kit (Cayman), PGF2α by ELISA, COX-2; format: biochemical; settings: compound at 50 μm; relative to PGF2α produced without compound (100%)
T1 construct: purchased Cayman Chemical Company 560121
T1 sequence (P35354 18-604): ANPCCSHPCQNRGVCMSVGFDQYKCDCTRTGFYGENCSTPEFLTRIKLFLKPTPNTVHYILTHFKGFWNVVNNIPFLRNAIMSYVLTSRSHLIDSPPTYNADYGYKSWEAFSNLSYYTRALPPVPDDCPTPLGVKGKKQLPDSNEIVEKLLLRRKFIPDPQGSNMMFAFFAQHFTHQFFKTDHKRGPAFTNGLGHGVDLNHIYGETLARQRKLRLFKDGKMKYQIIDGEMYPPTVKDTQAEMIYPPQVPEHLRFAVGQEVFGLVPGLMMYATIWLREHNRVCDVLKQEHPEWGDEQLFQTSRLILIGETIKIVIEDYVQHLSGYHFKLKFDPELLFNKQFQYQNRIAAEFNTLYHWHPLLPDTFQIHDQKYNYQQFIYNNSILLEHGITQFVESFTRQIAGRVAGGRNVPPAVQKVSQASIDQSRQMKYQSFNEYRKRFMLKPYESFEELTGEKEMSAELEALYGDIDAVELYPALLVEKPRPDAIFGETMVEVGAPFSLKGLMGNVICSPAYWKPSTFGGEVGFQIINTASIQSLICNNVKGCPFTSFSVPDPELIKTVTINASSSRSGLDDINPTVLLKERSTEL
Description: (§1) Inhibitory activity against COX-1 and COX-2 of the compounds produced in the Examples was measured by using COX Inhibitor Screening Assay Kit (Catalog Nos. 560101 and 560121) purchased from Cayman Chemical Company.
(§2) Before starting the measurement, reaction buffer, heme, arachidonic acid, SnCl2, EIA buffer, washing buffer, prostaglandin (PG) screening EIA standard, PG screening acetylcholine esterase (AchE), tracer (chromogenic enzyme HRP conjugate), and PC screening EIA antiserum were prepared ready for use.
(§3) The reaction mixture containing the compound of the Examples (50 μM) and COX-1 or COX-2 was allowed to stand at 37° C. or 10 minutes, and after adding 10 μl of arachidonic acid, the solution was again allowed to stand at 37° C. for 2 minutes. After the reaction, the reaction was terminated by adding 50 μl of 1N-hydrochloric acid, and 100 μl solution of SnCl2 was added, and the reaction mixture was allowed to stand at room temperature for 5 minutes.
(§4) 50 μl of antiserum (rabbit anti-PGF2α antibody) was placed in the wells of 96 well plate that had been coated with mouse anti-rabbit IgG and 50 μl of the 2000-fold diluted PGF2α-containing liquid described above and 50 μl of AchE tracer were added to the well in this order, and the mixture was allowed to stand at room temperature for 18 hours. The wells were washed 5 times with the washing buffer to remove an excessive AchE tracer, and 200 μl of Ellman reagent was added. After leaving the plate in a dark room for 60 minutes, absorbance was measured at 405 nm.
(§5) A calibration curve was obtained by using the PG screening EIA standard, and the amount of PGF2α produced was determined from the absorption. Inhibitory rate at 50 μM of the compound of the Examples against COX-1 or COX-2 was calculated.
(§6) It is to be noted that the inhibitory rate was calculated in relation to the amount of the PGF2α produced by the reaction liquid free from the compounds of the Examples, which was taken 100%.

[2] = molecular target: T2, Cyclooxygenase-1 (COX-1) (Ovis aries, UniProt P05979); assay: COX Inhibitor Screening Assay Kit (Cayman), PGF2α by ELISA, COX-1; format: biochemical; settings: compound at 50 μm; relative to PGF2α produced without compound (100%)
T2 construct: purchased Cayman Chemical Company 560101
T2 sequence (P05979 25-600): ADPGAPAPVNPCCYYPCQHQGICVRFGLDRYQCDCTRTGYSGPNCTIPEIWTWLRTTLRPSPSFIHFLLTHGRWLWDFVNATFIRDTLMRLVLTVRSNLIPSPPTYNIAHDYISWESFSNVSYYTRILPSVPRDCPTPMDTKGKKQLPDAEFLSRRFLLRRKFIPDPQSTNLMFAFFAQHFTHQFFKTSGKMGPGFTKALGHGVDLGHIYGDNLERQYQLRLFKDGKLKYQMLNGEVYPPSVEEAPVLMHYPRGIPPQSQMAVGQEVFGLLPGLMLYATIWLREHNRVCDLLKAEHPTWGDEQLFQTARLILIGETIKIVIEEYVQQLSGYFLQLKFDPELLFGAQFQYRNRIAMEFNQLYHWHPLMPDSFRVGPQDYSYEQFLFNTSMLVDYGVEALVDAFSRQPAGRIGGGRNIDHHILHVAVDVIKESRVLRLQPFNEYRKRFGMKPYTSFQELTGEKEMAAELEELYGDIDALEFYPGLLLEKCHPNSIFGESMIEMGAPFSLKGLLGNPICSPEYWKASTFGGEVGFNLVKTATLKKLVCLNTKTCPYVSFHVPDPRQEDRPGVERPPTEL
Description: as §1, §2, §3, §4, §5, §6

[3] = system: collagen-induced platelet coagulation; assay: Inhibitory effect on collagen-induced platelet coagulation in platelet rich plasma; format: cell-based; settings: human platelet rich plasma, 37° C., coagulation induced with collagen; read-out: Inhibition of collagen-induced platelet coagulation, IC50
Description: Human blood was collected by using 1/10 volume of 3.13% sodium citrate as an anticoagulant, and the blood was centrifuged at 180 g for 10 minutes to separate platelet rich plasma (PRP), which was the upper layer. After collecting the upper layer PRP, the remaining lower layer was centrifuged at 1600 g for 10 minutes, and platelet poor plasma (PPP) in the upper layer was collected. 1 μl solution of the compound of the Examples was added to 200 μl of the PRP, and after allowing the sample to stand at 37° C. for 2 minutes, 2 μl of collagen was added in order to induce platelet coagulation. Platelet coagulation rate was measured with PAM-12C (SSR Engineering).

Compound | Inhibitory effect against COX-2 at 50 μm (% inhibition) [1] | Inhibitory effect against COX-1 at 50 μm (% inhibition) [2] | IC50 [3]
COc1ccc(-n2nc(C(=O)NC(C)(C)C)cc2-c2cc(CO)ccn2)cn1 [Example 4, N-tert-Butyl-5-(4-hydroxymethyl-2-pyridyl)-1-(6-methoxy-3-pyridyl)-1H-pyrazole-3-carboxamide] | −1.9 % inhibition | −1.5 % inhibition | 0.12 µM
Cc1ccc(-n2nc(C(=O)NC(C)(C)C)cc2-c2ccccn2)cn1 [Example 8, N-tert-Butyl-1-(6-methyl-3-pyridyl)-5-(2-pyridyl)-1H-pyrazole-3-carboxamide] | 3.9 % inhibition | −3.3 % inhibition | 0.018 µM
COc1ccc(-n2nc(C(=O)NC(C)(C)C)cc2-c2cnccn2)cn1 [Example 13, N-tert-Butyl-1-(6-methoxy-3-pyridyl)-5-(2-pyrazinyl)-1H-pyrazole-3-carboxamide] | 9.2 % inhibition | 13.9 % inhibition | 0.018 µM
COc1cnc(-n2nc(C(=O)NC(C)(C)C)cc2-c2ccccn2)cn1 [Example 15, N-tert-Butyl-1-(5-methoxy-2-pyrazinyl)-5-(2-pyridyl)-1H-pyrazole-3-carboxamide] | 6.9 % inhibition | 39.5 % inhibition | 0.029 µM
CC(C)(C)NC(=O)c1cc(-c2ccc(O)cn2)n(-c2cccnc2)n1 [Example 22, N-tert-Butyl-5-(5-hydroxy-2-pyridyl)-1-(3-pyridyl)-1H-pyrazole-3-carboxamide] | 4.2 % inhibition | 0.8 % inhibition | 0.21 µM
COc1ccc(-c2cc(C(=O)NC(C)(C)C)nn2-c2cccnc2)nc1 [Example 25, N-tert-Butyl-5-(5-methoxy-2-pyridyl)-1-(3-pyridyl)-1H-pyrazole-3-carboxamide] | 8.2 % inhibition | 4.7 % inhibition | 0.018 µM
CC(C)(C)NC(=O)c1cc(-c2ccc(N)cn2)n(-c2cccnc2)n1 [Example 71] |  | 7.9 % inhibition | 0.0231 µM
CC(C)(C)NC(=O)c1cc(-c2ccc(CN)cn2)n(-c2ccccc2)n1 [Example 74, N-tert-Butyl-5-(5-aminomethyl-2-pyridyl)-1-phenyl-1H-pyrazole-3-carboxamide] |  | 38.8 % inhibition | 0.17 µM
CC(C)(C)NC(=O)c1cc(-c2ccc(F)cn2)n(-c2cccnc2)n1 [Example 85, N-tert-Butyl-5-(5-fluoro-2-pyridyl)-1-(3-pyridyl)-1H-pyrazole-3-carboxamide] |  |  | 0.054 µM
CC(C)(C)NC(=O)c1cc(-c2cnc(N)cn2)n(-c2cccnc2)n1 [Example 95, N-tert-Butyl-5-(5-amino-2-pyrazinyl)-1-(3-pyridyl)-1H-pyrazole-3-carboxamide] |  | −9.1 % inhibition | 0.16 µM
CC(C)(CF)NC(=O)c1cc(-c2ccc(N)cn2)n(-c2cccnc2)n1 [Example 98, N-(2-Fluoro-1,1-dimethylethyl)-5-(5-amino-2-pyridyl)-1(3-pyridyl)-1H-pyrazole-3-carboxamide] |  | −20.4 % inhibition | 0.043 µM
CC(C)(CF)NC(=O)c1cc(-c2cnc(N)cn2)n(-c2cccnc2)n1 [Example 113, N-(2-Fluoro-1,1-dimethylethyl)-5-(5-amino-2-pyrazinyl)-1-(3-pyridyl)-1H-pyrazole-3-carboxamide] |  | −2.8 % inhibition | 0.15 µM
COc1ccc(-n2nc(C(=O)N(C)C)cc2-c2ccn(C)c2)cn1 [Example 116, N,N-Dimethyl-1-(6-methoxy-3-pyridyl)-5-(1-methyl-1H-pyrrol-3-yl)-1H-pyrazole-3-carboxamide] |  |  | 0.02 µM
Cc1ccc(-n2nc(C(=O)NC(C)(C)C)cc2-c2cn(C)cn2)cn1 [Example 122, N-tert-Butyl-5-(1-methyl-1H-imidazol-4-yl)-1-(6-methyl-3-pyridyl)-1H-pyrazole-3-carboxamide] |  |  | 0.1 µM
C#Cc1ccc(-c2cc(C(=O)NC(C)(C)CF)nn2-c2cccnc2)nc1 [Example 132, 5-(5-Ethynyl-2-pyridyl)-N-(2-fluoro-1,1-dimethylethyl)-1-(3-pyridyl)-1H-pyrazole-3-carboxamide] |  |  | 0.032 µM
CC(C)(C)NC(=O)c1cc(-c2ccc(CNS(C)(=O)=O)cn2)n(-c2cccnc2)n1 [Example 137, N-tert-Butyl-5-[5-(methanesulfonylamino)methyl-2-pyridyl]-1-(3-pyridyl)-1H-pyrazole-3-carboxamide] |  | −5.1 % inhibition | 0.23 µM
CC(=O)NCc1ccc(-c2cc(C(=O)NC(C)(C)C)nn2-c2cccnc2)nc1 [Example 138, N-tert-Butyl-5-[5-(acetylamino)methyl-2-pyridyl]-1-(3-pyridyl)-1H-pyrazole-3-carboxamide] |  | 0.7 % inhibition | 0.16 µM
COC(=O)NCc1ccc(-c2cc(C(=O)NC(C)(C)C)nn2-c2cccnc2)nc1 [Example 139, Methyl {6-[5-(N-tert-butylcarbamoyl)-2-(3-pyridyl)-2H-pyrazol-3-yl]-3-pyridylmethyl}carbamate] |  | −25.8 % inhibition | 0.071 µM
Cc1ccc(-c2cc(C(=O)NC(C)(C)CO)nn2-c2cccnc2)nc1 [Example 152, N-(2-Hydroxy-1,1-dimethylethyl)-5-(5-methyl-2-pyridyl)-1-(3-pyridyl)-1H-pyrazole-3-carboxamide] |  | −8.7 % inhibition | 0.11 µM
